This note sets out measurements from patent US5466809A (Toronto Research Chemicals, Inc., priority 1994, dated 1995).

One assay has as its system bone marrow cells. The assay is described as follows: In vivo bone marrow CFU formation and bone marrow cellularity, dose dependent effect. More on the design: species or system C57BL/6 mice. To be noted: for optimal dose / Effect on bone marrow cellularity and CFU formation compared with swainsonine (summary) / Effect on bone marrow cellularity and CFU formation (summary): summary of experiments; for Effect on bone marrow cellularity and CFU formation compared with swainsonine (summary): for 3 and 23 versus 10 μg swainsonine; for Mean of CFU Formation / Mean of Cellularity: 4 days. The text has this: Assay for Bone Marrow Cell Proliferation Induced by Swansonine Analogues. Pathogen-free C57BL/6 mice at 8-14 weeks of age were quarantined for one week prior to their use in the experiments described below. Mice were inoculated intraperitoneally twice daily with a designated dose of swainsonine or an analogue of swainsonine for a period of four days. Eighteen hours following the last injection, the mice were sacrificed, bone marrow cells were obtained using standard technology (S. C. White et al., J. Natl. Cancer Inst. 83 1125, 1991). Cellularity of the bone marrow cells so obtained was determined by directly counting the cells after they were flushed from the femurs and tibia of the mice. The cells were processed according to the procedure described in the GIBCO-BRL Mouse Bone Stem Cell Proliferation Kit, and the number of colony forming units (CFU) was assessed using the procedures also described in the kit. For kinetic experiments, mice were administered 10 ug of the analogue (this was the optimum dose in all cases) twice daily for the designated number of days. The experiments were designed so that all regimens terminated on the same day. Eighteen hours after the last injection, the mice were sacrificed and bone marrow cells were obtained and processed as described above.

Assay [1] addresses T1, Jack Bean alpha-mannosidase (Canavalia ensiformis, UniProt C0HJB3).
T1 sequence (C0HJB3 1-981): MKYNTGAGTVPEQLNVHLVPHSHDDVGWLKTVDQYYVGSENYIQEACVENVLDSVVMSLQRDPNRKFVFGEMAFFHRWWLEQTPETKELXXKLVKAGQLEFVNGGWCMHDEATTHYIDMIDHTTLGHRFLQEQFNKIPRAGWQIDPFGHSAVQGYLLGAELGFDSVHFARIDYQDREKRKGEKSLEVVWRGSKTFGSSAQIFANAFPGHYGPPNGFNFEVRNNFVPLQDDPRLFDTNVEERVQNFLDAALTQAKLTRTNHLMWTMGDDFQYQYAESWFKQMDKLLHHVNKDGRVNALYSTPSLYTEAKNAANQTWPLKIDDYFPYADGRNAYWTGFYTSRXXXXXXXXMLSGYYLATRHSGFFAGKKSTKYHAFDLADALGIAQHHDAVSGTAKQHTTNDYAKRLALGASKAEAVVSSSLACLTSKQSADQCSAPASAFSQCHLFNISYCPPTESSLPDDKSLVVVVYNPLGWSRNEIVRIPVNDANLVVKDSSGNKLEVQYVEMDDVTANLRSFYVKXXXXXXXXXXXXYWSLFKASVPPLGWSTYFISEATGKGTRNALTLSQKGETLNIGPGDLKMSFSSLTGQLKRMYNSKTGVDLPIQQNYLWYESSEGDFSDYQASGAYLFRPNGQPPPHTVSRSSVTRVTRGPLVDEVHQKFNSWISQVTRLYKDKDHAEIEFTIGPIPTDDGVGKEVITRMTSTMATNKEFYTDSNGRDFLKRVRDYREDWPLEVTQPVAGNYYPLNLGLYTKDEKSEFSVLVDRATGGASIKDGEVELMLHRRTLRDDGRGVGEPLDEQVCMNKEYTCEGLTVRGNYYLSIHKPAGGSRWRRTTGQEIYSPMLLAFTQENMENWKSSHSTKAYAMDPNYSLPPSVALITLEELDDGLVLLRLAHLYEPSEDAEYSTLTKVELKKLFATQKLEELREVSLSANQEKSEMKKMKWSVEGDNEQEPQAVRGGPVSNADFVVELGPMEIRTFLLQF
Briefly: Jack Bean alpha-mannosidase assay. It counts as biochemical. To be noted: pH 6.0, 37° C., 30 minutes, p-nitrophenyl-alpha-D-mannopyranoside substrate; read-out: D50 Values (Inhibition), J.B. mannosidase (converted). As to the method:
Jack Bean alpha-Mannosidase Assay. […] A volume (37.5 ul) of 0.05M sodium acetate (pH 6.0) was added to each well, followed by 37.5 ul of 0.01M p-nitrophenyl-alpha-D-mannopyanoside, and then 10 ul of a 1:400 dilution of Jack Bean alpha-mannosidase. After thoroughly shaking to mix, the mixture was incubated at 37° C. for 30 minutes. The reaction was stopped by the addition of 150 ul of 0.5M sodium carbonate (pH 10.0). The absorbance at 405 nm of the solution in the wells was determined in an ELISA plate reader.

The subject of assay [2] is N-linked oligosaccharide processing. The assay is described as follows: L-PHA lectin sensitivity assay for inhibition of N-linked oligosaccharide processing. It counts as cell-based. On the procedure:
This test also indicates whether the compounds enter tumor cells and measures the degree of toxicity of the compounds for cells. The test is described in J. W. Dennis, Cancer Research 46:5131, 1986.
Essentially, 2×10^4 cells are placed in individual wells of a 96-well microtest plate, wherein the wells contain serial dilutions of the compounds to be tested. […] […] The cells are then harvested and the amount of radioactivity incorporated into the host cell DNA is measured in a liquid scintillation counter. The amount of radioactivity present in cells in wells in the absence of L-PHA reflects the toxicity of the test compound and the amount of radioactivity present in the presence of L-PHA reflects the level of inhibition of oligosaccharide processing induced by the test compound.

Setting [3] is: L-PHA assay, 3H-thymidine incorporation, read-out: D50 Values (Inhibition), L-PHA assay.
Where [4] appears, read: Expt. 1, 10 μg twice daily i.p.
Setting [5] is: Expt. 1, 20 μg twice daily i.p.

SMILES strings stand for the structures. In brackets after ≈: the same amount, converted by molar mass. Several values for one entry are separate records, joined by “and”; a condition that tells them apart may be missing. Equal entries are not always repeated. Where two headings read alike, the source gives them in different places.

Consider `CCCC(=O)O[C@@H]1CN2CCC[C@@H](O)[C@@H]2[C@@H]1O` [Compound 3, 1S-8a-β-2-alpha-butanoyloxyoctahydroindolizine-1-alpha-8-β-diol], for which, in the assay on bone marrow cells, the optimal dose came out at 10 µg; the “Effect on bone marrow cellularity and CFU formation compared with swainsonine (summary)” value is reported as “comparable to”. Also, in assay [1], the IC50 is 144 µM. Moreover, the “amount of radioactivity incorporated by cells” value in assay [2] (3H-thymidine incorporation, compared with swainsonine) was “comparable to that of swainsonine”. Moreover, in assay [2] (setting [3]), the IC50 worked out at 0.066 µg/mL (≈ 0.271 µM).

For `CCOC1CC(=O)N2C[C@@H](O)[C@@H](O)[C@H]2[C@@H]1O` (stereo partly drawn) [Compound 23, 7-ethoxy-(1S,2R,8R,8aR)-1,2,8-trihydroxy-octahydro-5-oxyindolizine], the optimal dose in the assay with bone marrow cells stood at 10 µg. Also, in the assay on bone marrow cells, the “Effect on bone marrow cellularity and CFU formation compared with swainsonine (summary)” value is reported as “comparable to”. Further, the IC50 in assay [1] is 43.2 µM; in assay [2] (setting [3]) it was greater than 1 µg/mL.

Take `O[C@@H]1[C@H](O)[C@H](O)CN2C[C@@H](O)[C@@H](O)[C@@H]12` [Compound 36, 1S-1-alpha-2-alpha-6β,7β-8β-pentahydroxy-8a-β-octahydroindolizine]: the “Mean of CFU Formation” value with bone marrow cells (Expt. 1, 5 μg twice daily i.p.) worked out at 291 CFU; in the assay with bone marrow cells (setting [4]), 545 CFU; in the assay with bone marrow cells (setting [5]), 327 CFU. For the same molecule, the “Mean of Cellularity” value in the assay on bone marrow cells (Expt. 1, 5 μg twice daily i.p.) was 2.28 × 10^7; with bone marrow cells (setting [4]) it was 5.27 × 10^7; in the assay on bone marrow cells (setting [5]) it was 2.59 × 10^7.

With `Cc1ccc(C(=O)O[C@@H]2CN3CCC[C@@H](O)[C@@H]3[C@@H]2O)cc1` [Compound 41, 1S-8a-β-2-alpha-p-toluoyloxyoctahydroindolizine-1-alpha-8-β-diol], the “Mean of CFU Formation” value in the assay with bone marrow cells (Expt. 1, 5 μg twice daily i.p.) is 195 CFU; with bone marrow cells (setting [4]) it was 359 CFU; in the assay with bone marrow cells (setting [5]) it was 214 CFU. The “Mean of Cellularity” value with bone marrow cells (Expt. 1, 5 μg twice daily i.p.) is on record as 2.22 × 10^7; in the assay with bone marrow cells (setting [4]) it was 2.99 × 10^7; with bone marrow cells (setting [5]), 2.14 × 10^7. For the same molecule, the “Effect on bone marrow cellularity and CFU formation (summary)” value with bone marrow cells is reported as “Stimulates CFU & cellularity”. In addition, the IC50 in assay [1] is 343 µM; in assay [2] (setting [3]) it was 1 µg/mL (≈ 3.43 µM).

In the case of `O=C(O[C@@H]1CN2CCC[C@@H](O)[C@@H]2[C@@H]1O)c1ccc([N+](=O)[O-])cc1` [Compound 42, 1S-8a-β-2-alpha-p-nitorbenzoyloxyoctahydroindolizine-1-alpha-8-β-diol], the “Mean of CFU Formation” value in the assay with bone marrow cells (Expt. 1, 5 μg twice daily i.p.) is given as 213 CFU; in the assay with bone marrow cells (setting [4]), 373 CFU; with bone marrow cells (setting [5]) it was 242 CFU. For the same molecule, the “Mean of Cellularity” value with bone marrow cells (Expt. 1, 5 μg twice daily i.p.) is given as 2.68 × 10^7; with bone marrow cells (setting [4]), 3.21 × 10^7; in the assay with bone marrow cells (setting [5]) it was 2.63 × 10^7. Moreover, in the assay on bone marrow cells, the “Effect on bone marrow cellularity and CFU formation (summary)” value is “Stimulates CFU & cellularity”. For the same molecule, the IC50 in assay [1] is 109 µM; in assay [2] (setting [3]), 0.066 µg/mL (≈ 0.205 µM).

For the molecule `O=C1N[C@@H]2[C@@H](O)[C@@H](O)[C@H](O)[C@@H](CO)N2C1=O` [Kefunensine, reference compound], the IC50 in assay [1] was 151 µM; in assay [2] (setting [3]), 1 µg/mL (≈ 4.31 µM).

With `O[C@H]1[C@H]2[C@H](O)CCCN2C[C@H]1O` [swainsonine, 1S-8a-β-octahydroindolizine-1-alpha-2-alpha-8-β-triol, reference compound], the “Mean of CFU Formation” value with bone marrow cells (setting [4]) is 550 CFU and 446 CFU. Moreover, the “Mean of Cellularity” value in the assay with bone marrow cells (setting [4]) is 5.86 × 10^7 and 3.73 × 10^7; in the assay on bone marrow cells (Expt. 2, 10 μg twice daily i.p.), 5.76 × 10^7. Further, the IC50 in assay [2] (30 ug/ml L-PHA, read-out: I50) was ~0.02 µg/mL and ~100 nM; in assay [2] (setting [3]) it was 0.033 µg/mL (≈ 0.191 µM).
